Experimental data reported in ChEMBL document CHEMBL5126678, “A New Naphthopyran Derivative Combines c-Myb Inhibition, Microtubule-Targeting Effects, and Antiangiogenic Properties” (ACS Med Chem Lett, 2022).
Calls of active or inactive are those of the source. The rule behind the calls is not given here.

Experiments:
[1] = target: Transcriptional activator Myb (Homo sapiens, UniProt P10242); test: Inhibition of c-Myb (unknown origin) expressed in HEK293T cells measured after 16 hrs by steady-glo luciferase reporter gene assay; assay type: cell-based
Tubulin (Homo sapiens) [2] = target: T1, Tubulin (Homo sapiens) (UniProt P68371+Q9H4B7+P0DPH7+P68366+Q13509+Q71U36+P04350+Q3ZCM7+P07437+P68363+Q9BQE3+Q6PEY2+Q13885+Q9BVA1+Q9BUF5); test: Induction of microtubule fragmentation in human 518A2 cells assessed as appearance of area with transverse arcs at 25 nM measured after 24 hrs by immunofluorescence assay; assay type: cell-based
[3] = Effect on angiogenic activity in human EA.hy 926 cells assessed as reduction in vessel like 2D structure at 25 nM measured after 5 hrs by light microscopy; assay type: toxicity, cell-based; details: ea.hy 926, 5 h, 0.025 µM
KB-V1 [4] = test: Cytotoxicity against human multidrug-resistant KB-V1 cells assessed as reduction in cell viability measured after 72 hrs in presence of verapamil by MTT assay; assay type: functional, cell-based; details: KB-V1, 72 h
[5] = Cytotoxicity against human U-87 cells assessed as reduction in cell viability measured after 72 hrs by MTT assay; assay type: functional, cell-based, U-87MG ATCC; details: U-87 MG
[6] = Cytotoxicity against human EA.hy 926 cells assessed as reduction in cell viability measured after 72 hrs by MTT assay; assay type: toxicity, cell-based
Sus scrofa = species on record: Sus scrofa; test: Inhibition of porcine brain tubulin polymerization at 5 uM measured at 10 mins interval for 100 mins by turbidimetric assay; assay type: tissue-based
HeLa = test: Cytotoxicity against human HeLa cells assessed as reduction in cell viability measured after 72 hrs by MTT assay; assay type: functional, cell-based
Tubulin (Homo sapiens) [7] = target: T1, Tubulin (Homo sapiens); test: Induction of microtubule fragmentation in human 518A2 cells at 25 nM measured after 24 hrs by immunofluorescence assay; assay type: cell-based
MCF7 = test: Cytotoxicity against human MCF7 cells assessed as reduction in cell viability measured after 72 hrs by MTT assay; assay type: functional, cell-based; details: MCF7, 72 h
HT-29 = test: Cytotoxicity against human HT-29 cells assessed as reduction in cell viability measured after 72 hrs by MTT assay; assay type: functional, cell-based; details: HT-29, 72 h
[8] = Effect on angiogenic activity in 24 hrs post-fertilized fil1/EGFP transgenic zebrafish embryo assessed as subintestinal vessel area at 100 nM measured after 48 hrs by fluorescence microscopy (reference value: 100%); assay type: toxicity, Danio rerio; details: 0.1 µM
[9] = Hydrolytic stability of compound in DMSO-d6/D2O measured after 7 days by 1H-NMR analysis; assay type: physicochemical; details: 168 h; time 7 day
[10] = target: Caspase-3/Caspase-7 (Homo sapiens) (UniProt P42574+P55210); test: Activation of caspase-3/7 activity in human 518A2 cells at 25 nM preincubated for 24 hrs followed by caspase-3/7 fluorogenic substrate addition and measured after 60 mins by fluorescence assay; assay type: cell-based; details: filed as activator, time 25.0 hrs
[11] = Cytotoxicity against HDFa cells assessed as reduction in cell viability at 0.0005 to 100 uM measured after 72 hrs by MTT assay; assay type: toxicity, cell-based; details: human, dose 0.0005-100 µM
HCT-116 [12] = test: Cytotoxicity against p53-deficient human HCT-116 cells assessed as reduction in cell viability measured after 72 hrs by MTT assay; assay type: functional, cell-based; details: HCT-116, 72 h
518A2 [13] = test: Cell cycle arrest in human […] cells assessed as increase in accumulation at G2/M phase at 25 nM measured after 6 to 24 hrs by propidium iodide staining based FACS analysis; assay type: functional; details: time 6-24 hrs
KB-V1 [14] = test: Cytotoxicity against human multidrug-resistant KB-V1 cells assessed as reduction in cell viability measured after 72 hrs by MTT assay; assay type: functional, cell-based; details: KB-V1, 72 h
Tubulin (Homo sapiens) [15] = target: T1, Tubulin (Homo sapiens); test: Induction of microtubule fragmentation in human 518A2 cells assessed as appearance of area with dorsal stress fibre at 25 nM measured after 24 hrs by immunofluorescence assay; assay type: cell-based
518A2 [16] = test: Cell cycle arrest in human […] cells assessed as increase in accumulation at sub-G1 phase at 25 nM measured after 6 to 24 hrs by propidium iodide staining based FACS analysis; assay type: functional; details: time 6-24 hrs
518A2 [17] = test: Cytotoxicity against human 518A2 cells assessed as reduction in cell viability measured after 72 hrs by MTT assay; assay type: functional, cell-based; details: 518A2, 72 h
HCT-116 [18] = test: Cytotoxicity against human HCT-116 cells assessed as reduction in cell viability measured after 72 hrs by MTT assay; assay type: functional, cell-based; details: HCT-116, 72 h
[19] = Stability of compound in human 518A2 cell lysate measured after 72 hrs by RP-HPLC analysis; assay type: ADME, subcellular; details: 518a2, 72 h
[20] = Drug uptake in cytoplasm of human 518A2 cells at 25 uM measured within 15 mins by confocal microscopy; assay type: ADME, subcellular; details: 518a2, 0.25 h
[21] = Stability of compound in human 518A2 cell lysate at 100 uM measured after 24 hrs by UV-absorption spectra analysis; assay type: ADME, subcellular; details: 518a2, 24 h

Caspase-3/Caspase-7 (Homo sapiens), sequence (P42574 whole entry, looked up): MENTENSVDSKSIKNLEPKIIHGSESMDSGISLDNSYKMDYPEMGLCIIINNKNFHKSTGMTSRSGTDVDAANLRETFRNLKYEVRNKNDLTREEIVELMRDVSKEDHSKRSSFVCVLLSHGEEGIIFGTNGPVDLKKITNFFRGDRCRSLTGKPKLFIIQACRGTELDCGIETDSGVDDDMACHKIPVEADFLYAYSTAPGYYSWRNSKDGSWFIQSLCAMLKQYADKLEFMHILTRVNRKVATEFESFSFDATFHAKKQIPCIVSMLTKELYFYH
Caspase-3/Caspase-7 (Homo sapiens), sequence (P55210 whole entry, looked up): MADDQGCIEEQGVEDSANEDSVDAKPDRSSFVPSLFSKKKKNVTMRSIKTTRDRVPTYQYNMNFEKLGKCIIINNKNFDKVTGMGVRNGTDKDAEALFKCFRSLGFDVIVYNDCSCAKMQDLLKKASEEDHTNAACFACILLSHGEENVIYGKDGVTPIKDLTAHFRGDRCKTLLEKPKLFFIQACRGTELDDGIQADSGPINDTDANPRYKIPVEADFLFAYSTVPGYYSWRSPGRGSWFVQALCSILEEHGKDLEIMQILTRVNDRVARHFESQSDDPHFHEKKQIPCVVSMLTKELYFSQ
Transcriptional activator Myb, sequence (P10242 whole entry, the tested form may be a part): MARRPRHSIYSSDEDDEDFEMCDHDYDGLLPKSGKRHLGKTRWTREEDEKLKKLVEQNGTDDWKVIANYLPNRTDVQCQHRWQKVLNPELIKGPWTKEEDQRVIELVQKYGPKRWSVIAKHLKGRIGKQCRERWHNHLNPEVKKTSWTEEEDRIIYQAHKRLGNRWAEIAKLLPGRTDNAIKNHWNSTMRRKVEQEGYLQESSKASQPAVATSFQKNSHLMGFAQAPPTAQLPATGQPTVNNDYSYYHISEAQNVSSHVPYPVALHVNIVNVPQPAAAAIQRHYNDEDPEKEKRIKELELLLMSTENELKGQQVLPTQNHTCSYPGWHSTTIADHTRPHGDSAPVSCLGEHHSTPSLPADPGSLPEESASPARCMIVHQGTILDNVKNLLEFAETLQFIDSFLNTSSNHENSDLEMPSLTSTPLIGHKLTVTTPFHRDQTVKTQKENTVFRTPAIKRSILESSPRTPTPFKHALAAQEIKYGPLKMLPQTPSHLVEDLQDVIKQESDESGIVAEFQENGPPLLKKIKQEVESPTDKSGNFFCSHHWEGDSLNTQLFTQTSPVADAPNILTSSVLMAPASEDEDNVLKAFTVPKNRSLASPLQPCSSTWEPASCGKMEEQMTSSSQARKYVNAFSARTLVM

| SMILES | IC50 [1] [nM] | Activity (Tubulin (Homo sapiens) [2]) | Activity (Tubulin (Homo sapiens) [7]) | Activity (Tubulin (Homo sapiens) [15]) | IC50 (KB-V1 [4]) [nM] | IC50 [5] [nM] | IC50 at 72 h [6] [nM] | inhibition (Sus scrofa) | IC50 (HeLa) [nM] | IC50 (MCF7) [nM] | IC50 (HT-29) [nM] | IC50 (HCT-116 [12]) [nM] | IC50 (KB-V1 [14]) [nM] | IC50 (518A2 [17]) [nM] | IC50 (HCT-116 [18]) [nM] | other results |
| --- | --- | --- | --- | --- | --- | --- | --- | --- | --- | --- | --- | --- | --- | --- | --- | --- |
| CCCCCOc1c(OC)cc(C2C(C#N)=C(N)Oc3c2ccc2ccccc32)cc1OC (stereo not drawn) | 400 | – | – | – | – | – | – | – | – | – | – | – | – | – | – | – |
| CCOc1c(Br)cc(C2C(C#N)=C(N)Oc3c2ccc2ccccc32)cc1OC (stereo not drawn) | 36.8 | – | – | – | – | – | – | – | – | – | – | – | – | – | – | – |
| COc1cc(C2C(C#N)=C(N)Oc3c2ccc2ccccc32)cc(OC)c1OC (stereo not drawn) | 9.1 | Active | Active | Active | 8.8 | 5.2 | 19.9 | Active | 11.3 | 34.1 | 324 | 27.6 | 26.4 | 28.8 | 22.2 | Activity [3]: Toxic; Activity [8]: 81.4%; Stability [9]: Stable; Activity [10]: Active; Activity [11]: Toxic; Activity (518A2 [13]): Active; Activity (518A2 [16]): Active |
| CCCOc1c(OC)cc(C2C(C#N)=C(N)Oc3c2ccc2ccccc32)cc1OC (stereo not drawn) | 30 | Active | Active | Active | 16.3 | 27.4 | 11.9 | Active | 33.1 | 21.4 | 284 | 33.1 | 23.1 | 26.1 | 68.5 | Activity [3]: Toxic; Activity [8]: 74.5%; Activity [10]: Active; Activity [11]: Toxic; Activity (518A2 [13]): Active; Activity (518A2 [16]): Active |
| C#CCOc1c(OC)cc(C2C(C#N)=C(N)Oc3c2ccc2ccccc32)cc1OC (stereo not drawn) | 11 | Active | Active | Active | 10.6 | 5.2 | 17.1 | Active | 24 | 2.6 | 36.9 | 19.9 | 60.6 | 20.6 | 75.2 | Activity [3]: Toxic; Stability [19]: Stable; Activity [8]: 34.5%; Stability [9]: Stable; Drug uptake [20]: Active; Activity [10]: Active; Activity [11]: Toxic; Activity (518A2 [13]): Active; Activity (518A2 [16]): Active; Stability [21]: Stable |
| CSc1ccc(C2C(C#N)=C(N)Oc3c2ccc2ccccc32)cc1 (stereo not drawn) | 210 | – | – | – | – | – | – | – | – | – | – | – | – | – | – | – |
| CCCCOc1c(OC)cc(C2C(C#N)=C(N)Oc3c2ccc2ccccc32)cc1OC (stereo not drawn) | 30 | Active | Active | Active | 41.6 | 46.3 | 78 | Active | 98.9 | 103 | 671 | 172 | 84.5 | 143 | 67.4 | Activity [8]: 87.6%; Activity [10]: Active; Activity [11]: Toxic |
| COc1cc(C2C(C#N)=C(N)Oc3c2ccc2ccccc32)ccc1OCc1ccccc1 (stereo not drawn) | 1000 | – | – | – | – | – | – | – | – | – | – | – | – | – | – | – |
| N#CC1=C(N)Oc2c(ccc3ccccc23)C1c1cccc([N+](=O)[O-])c1 (stereo not drawn) | 8.7 | – | – | – | 76.1 | 67.7 | 29.5 | – | 36.1 | 182 | 32.1 | 28.2 | 23.7 | 10.8 | 7.57 | Stability [9]: Stable |
| COc1ccc(/C=C\c2cc(OC)c(OC)c(OC)c2)cc1O [COMBRETASTATIN A4] | – | Active | Active | Active | – | – | – | Active | – | – | – | – | – | – | – | Stability [9]: Unstable; Activity (518A2 [13]): Active |

Continued, in another order:

| IC50 [1] [nM] | Activity (Tubulin (Homo sapiens) [2]) | Activity (Tubulin (Homo sapiens) [7]) | Activity (Tubulin (Homo sapiens) [15]) | SMILES | IC50 (KB-V1 [4]) [nM] | IC50 [5] [nM] | IC50 at 72 h [6] [nM] | inhibition (Sus scrofa) | IC50 (HeLa) [nM] | IC50 (MCF7) [nM] | IC50 (HT-29) [nM] | IC50 (HCT-116 [12]) [nM] | IC50 (KB-V1 [14]) [nM] | IC50 (518A2 [17]) [nM] | IC50 (HCT-116 [18]) [nM] | other results |
| --- | --- | --- | --- | --- | --- | --- | --- | --- | --- | --- | --- | --- | --- | --- | --- | --- |
| 40 | – | – | – | COc1ccc(C2C(C#N)=C(N)Oc3c2ccc2ccccc32)cc1OC (stereo not drawn) | – | – | – | – | – | – | – | – | – | – | – | – |
| 420 | – | – | – | COc1ccc(C2C(C#N)=C(N)Oc3c2ccc2ccccc32)cc1Br (stereo not drawn) | – | – | – | – | – | – | – | – | – | – | – | – |
| 400 | – | – | – | COc1ccc(C2C(C#N)=C(N)Oc3c2ccc2ccccc32)cc1C (stereo not drawn) | – | – | – | – | – | – | – | – | – | – | – | – |
| 110 | – | – | – | COc1ccc(C2C(C#N)=C(N)Oc3c2ccc2ccccc32)cc1[N+](=O)[O-] (stereo not drawn) | – | – | – | – | – | – | – | – | – | – | – | – |
| 240 | – | – | – | CSc1ccc(C2C(C#N)=C(N)Oc3c2ccc2ccccc32)cc1F (stereo not drawn) | – | – | – | – | – | – | – | – | – | – | – | – |
